Assay results reported in patent US20260295053A1, “COMPOUNDS FOR DEGRADATION AND INHIBITION OF KRAS (G12D) PROTEIN” (Shenzhen Ionova Life Science Co., Ltd., priority 2023, published 2026).

Key:
KRAS (G12D) = molecular target: T1, KRAS (G12D) (Homo sapiens, UniProt P01116, G12D); experiment: KRAS (G12D) cellular degradation assay in AsPC-1 cells; assay type: cell-based; conditions: 24 hours, antibody fluorescence (Odyssey CLX), DC50 half-maximal degradation concentration
T1 construct: in-cell western with KRAS G12D antibody after 24 h
T1 sequence (P01116 1-188 isoform P01116-2 G12D): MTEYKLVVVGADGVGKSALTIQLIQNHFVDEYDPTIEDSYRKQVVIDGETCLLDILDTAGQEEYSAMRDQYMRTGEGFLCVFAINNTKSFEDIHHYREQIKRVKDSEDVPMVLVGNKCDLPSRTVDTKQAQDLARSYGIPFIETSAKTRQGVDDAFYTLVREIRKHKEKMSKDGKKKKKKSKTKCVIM
In short: (§1)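 Degradation: 22,000 cells/well grown to ~90% confluency, 24 h compound, fixed/permeabilised, anti-KRAS G12D + β-actin antibodies, near-IR fluorescence, DC50. Proliferation: 3,500 cells/well overnight, 6 d compound, CellTiter Glo luminescence, IC50. Dosing […]–1.5 nM final, 1:3 steps.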

AsPC-1 cells = experiment: AsPC-1 cell proliferation assay (CellTiter Glo); assay type: cell-based; conditions: Homo sapiens, ASPC1, 144 h, 6 days
In short: as §1

Row | SMILES | DC50 (KRAS (G12D)) | IC50 (AsPC-1 cells)
1 | CCn1nccc1-c1ccc([C@H](CO)NC(=O)[C@@H]2C[C@@H](O)CN2C(=O)[C@H](C(C)C)n2cc(-c3ccc(COc4c(-c5c(C)c(F)cc6[nH]ncc56)c(C5CC5)cc5c(N6C[C@@H]7C[C@H]6CN7)nc(OC[C@H](C)OC)nc45)cc3C)nn2)cc1 [Example 44, (2S,4R)-1-((2S)-2-(4-(4-(((4-((1S,4S)-2,5-diazabicyclo[2.2.1]heptan-2-yl)-6-cyclopropyl-7-(6-fluoro-5-methyl-1H-indazol-4-yl)-2-((S)-2-methoxypropoxy)quinazolin-8-yl)oxy)methyl)-2-methylphenyl)-1H-1,2,3-triazol-1-yl)-3-methylbutanoyl)-N—((R)-1-(4-(1-ethyl-1H-pyrazol-5-yl)phenyl)-2-hydroxyethyl)-4-hydroxypyrrolidine-2-carboxamide] | < 10 nM | < 10 nM
2 | CO[C@H]1C[C@H](Oc2nc(N(C)[C@H]3CCNC3)c3cc(C4CC4)c(-c4c(C)c(F)cc5[nH]ncc45)c(OCc4ccc(-c5cn([C@H](C(=O)N6C[C@H](O)C[C@H]6C(=O)N[C@@H](CO)c6ccc(-c7scnc7C)cc6)C(C)C)nn5)cc4)c3n2)C1 [Example 166, (2S,4R)-1-((2S)-2-(4-(4-(((6-cyclopropyl-7-(6-fluoro-5-methyl-1H-indazol-4-yl)-2-((1r,3S)-3-methoxycyclobutoxy)-4-(methyl((S)-pyrrolidin-3-yl)amino)quinazolin-8-yl)oxy)methyl)phenyl)-1H-1,2,3-triazol-1-yl)-3-methylbutanoyl)-4-hydroxy-N—((R)-2-hydroxy-1-(4-(4-methylthiazol-5-yl)phenyl)ethyl)pyrrolidine-2-carboxamide] | < 10 nM | < 10 nM

Other lines, results leading:

Row | DC50 (KRAS (G12D)) | IC50 (AsPC-1 cells) | SMILES
3 | < 10 nM | < 10 nM | CNc1nc2ccc(C#C[C@H](CO)NC(=O)[C@@H]3C[C@@H](O)CN3C(=O)[C@H](C(C)C)n3cc(-c4ccc(COc5c(-c6c(C)c(F)cc7[nH]ncc67)c(C6CC6)cc6c(N7C[C@@H]8C[C@H]7CN8)nc(OC[C@H](C)OC)nc56)cc4)nn3)cc2s1 [Example 176, (2S,4R)-1-((2S)-2-(4-(4-(((4-((1S,4S)-2,5-diazabicyclo[2.2.1]heptan-2-yl)-6-cyclopropyl-7-(6-fluoro-5-methyl-1H-indazol-4-yl)-2-((S)-2-methoxypropoxy)quinazolin-8-yl)oxy)methyl)phenyl)-1H-1,2,3-triazol-1-yl)-3-methylbutanoyl)-4-hydroxy-N—((R)-1-hydroxy-4-(2-(methylamino)benzo[d]thiazol-6-yl)but-3-yn-2-yl)pyrrolidine-2-carboxamide]
4 | < 10 nM | < 10 nM | CCn1nccc1-c1ccc([C@H](CO)NC(=O)[C@@H]2C[C@@H](O)CN2C(=O)[C@H](C(C)C)n2cc(-c3ccc(COc4c(-c5c(C)c(F)cc6[nH]ncc56)c(C5CC5)cc5c(N6C[C@@H]7C[C@H]6CN7)nc(OCC(F)(F)COC)nc45)cc3)nn2)cc1 [Example 47, (2S,4R)-1-((2S)-2-(4-(4-(((4-((1S,4S)-2,5-diazabicyclo[2.2.1]heptan-2-yl)-6-cyclopropyl-2-(2,2-difluoro-3-methoxypropoxy)-7-(6-fluoro-5-methyl-1H-indazol-4-yl)quinazolin-8-yl)oxy)methyl)phenyl)-1H-1,2,3-triazol-1-yl)-3-methylbutanoyl)-N—((R)-1-(4-(1-ethyl-1H-pyrazol-5-yl)phenyl)-2-hydroxyethyl)-4-hydroxypyrrolidine-2-carboxamide]
5 | 10 to 100 nM | 10 to 100 nM | CO[C@@H](C)COc1nc(N2C[C@@H]3C[C@H]2CN3)c2cc(C3CC3)c(-c3c(C)c(F)cc4[nH]ncc34)c(OCc3ccc(-c4cn([C@H](C(=O)N5C[C@H](O)C[C@H]5C(=O)N[C@H](C#Cc5ccccc5Cl)CO)C(C)C)nn4)cc3)c2n1 [Example 64, (2S,4R)-1-((2S)-2-(4-(4-(((4-((1S,4S)-2,5-diazabicyclo[2.2.1]heptan-2-yl)-6-cyclopropyl-7-(6-fluoro-5-methyl-1H-indazol-4-yl)-2-((S)-2-methoxypropoxy)quinazolin-8-yl)oxy)methyl)phenyl)-1H-1,2,3-triazol-1-yl)-3-methylbutanoyl)-N—((R)-4-(2-chlorophenyl)-1-hydroxybut-3-yn-2-yl)-4-hydroxypyrrolidine-2-carboxamide]
